From patent US8779142B2, “Azabicyclo compound and salt thereof” (Taiho Pharmaceutical Co., Ltd., priority 2009, dated 2014)
Read-outs that look alike come from different tables or passages of the source.

What was measured:
[1] = biological target: human HSP90 alpha protein (HSP90 N-terminal protein, amino acids 2-236) (Homo sapiens (Human), UniProt P07900); assay: Measurement of HSP90-binding activity (AlphaScreen competitive assay, biotin-labeled geldanamycin); settings: read-out: HSP-binding activity IC50
SK-BR-3 cells = assay: Measurement of cell growth inhibition (crystal violet staining method); type: cell-based; settings: Homo sapiens
[2] = concentration inhibiting binding of biotin-labeled geldanamycin (40 nM) to purified HSP90 to 50% of control
[3] = breast cancer SK-BR-3 cells, 72 hr culture with test substance

SMILES	IC50 [1, 2]	IC50 (SK-BR-3 cells; [3])	IC50 [1]	IC50 (SK-BR-3 cells; SK-BR-3, 72 h)
CCc1cn(-c2ccc(C(N)=O)c(NCCCCO)c2)c2nccc(-c3cnc4ccccc4c3)c12 [Example 74, 4-{3-Ethyl-4-(quinolin-3-yl)-1H-pyrrolo[2,3-b]pyridin-1-yl}-2-(4-hydroxybutylamino)benzamide]	340 nM	270 nM		
Cc1cn(-c2ccc(C(N)=O)c(NC3CCC(O)CC3)c2)c2nccc(-n3cnc(-c4ccccc4)c3)c12 (centres unmarked) [Example 97, 2-(4-Hydroxycyclohexylamino)-4-{3-methyl-4-(4-phenyl-1H-imidazol-1-yl)-1H-pyrrolo[2,3-b]pyridin-1-yl}benzamide]	240 nM	70 nM		
CC(C)c1nn(-c2ccc(C(N)=O)c(NC3CCN(C(=O)CN)CC3)c2)c2nccc(-c3cnc4ccccc4c3)c12 [Example 79, 2-{1-(2-Aminoacetyl)piperidin-4-ylamino}-4-{3-isopropyl-4-(quinolin-3-yl)-1H-pyrazolo[3,4-b]pyridin-1-yl}benzamide]	250 nM	20 nM		
Cn1cc(-c2cn(-c3ccnc4c3c(C(F)(F)F)nn4-c3ccc(C(N)=O)cc3N)cn2)cn1 [Example 158, 3-Amino-4-{4-(4-(1-methyl-1H-pyrazol-4-yl)-1H-imidazol-1-yl)-3-(trifluoromethyl)-1H-pyrazolo[3,4-b]pyridin-1-yl}benzamide]	100 nM	200 nM		
CCNc1c(C(N)=O)ccc(-n2nc(C(C)C)c3c(-n4cnc(-c5cnn(C)c5)c4)ccnc32)c1C [Example 132, 2-(Ethylamino)-4-{3-isopropyl-4-(4-(1-methyl-1H-pyrazol-4-yl)-1H-imidazol-1-yl)-1H-pyrazolo[3,4-b]pyridin-1-yl}-3-methylbenzamide]	120 nM	100 nM		
Cc1cc(C(N)=O)ccc1-n1nc(C(C)C)c2c(-c3cnc4ccccc4c3)ccnc21 [Example 80, 4-{3-Isopropyl-4-(quinolin-3-yl)-1H-pyrazolo[3,4-b]pyridin-1-yl}-3-methylbenzamide]	470 nM	290 nM		
CC(C)c1nn(-c2ccc(C(N)=O)c(NC3CCN(C(=O)c4cc(O)nc(O)n4)CC3)c2)c2nccc(-c3cnc4ccccc4c3)c12 [Example 78, 2-{1-(2,6-Dihydroxypyrimidine-4-carbonyl)piperidin-4-ylamino}-4-{3-isopropyl-4-(quinolin-3-yl)-1H-pyrazolo[3,4-b]pyridin-1-yl}benzamide]	360 nM	650 nM		
CCNc1cc(C(N)=O)ccc1-n1nc(C(C)C)c2c(-n3cnc(-c4cnn(C)c4)c3)ccnc21 [Example 121, 3-(Ethylamino)-4-{3-isopropyl-4-(4-(1-methyl-1H-pyrazol-4-yl)-1H-imidazol-1-yl)-1H-pyrazolo[3,4-b]pyridin-1-yl}benzamide]	180 nM	160 nM		
Cc1cc(C(N)=O)ccc1-n1nc(C(F)(F)F)c2c(-c3cnc4ccccc4c3)ccnc21 [Example 82, 3-Methyl-4-{4-(quinolin-3-yl)-3-(trifluoromethyl)-1H-pyrazolo[3,4-b]pyridin-1-yl}benzamide]	830 nM	230 nM		
COc1cccc2c1ccn2-c1ccc(C(N)=O)c(NC2CCC(O)CC2)c1 (centres unmarked) [Comparative Example 2, reference compound]	> 100000 nM	> 10000 nM		
CCCNc1cc(C(N)=O)ccc1-n1nc(C(C)C)c2c(-n3cnc(-c4cnn(C)c4)c3)ccnc21 [Example 122, 4-{3-Isopropyl-4-(4-(1-methyl-1H-pyrazol-4-yl)-1H-imidazol-1-yl)-1H-pyrazolo[3,4-b]pyridin-1-yl}-3-(propylamino)benzamide]	180 nM	130 nM		
Cc1cc(C(N)=O)ccc1-n1nc(C(C)C)c2c(-n3cnc(-c4ccncc4)c3)ccnc21 [Example 149, 4-{3-Isopropyl-4-(4-(pyridin-4-yl)-1H-imidazol-1-yl)-1H-pyrazolo[3,4-b]pyridin-1-yl}-3-methylbenzamide]	390 nM	690 nM		
CCNc1cc(-n2nc(C(C)C)c3c(-n4cnc(-c5cn[nH]c5)c4)ccnc32)ccc1C(N)=O [Example 144, 4-{4-(4-(1H-Pyrazol-4-yl)-1H-imidazol-1-yl)-3-isopropyl-1H-pyrazolo[3,4-b]pyridin-1-yl}-2-(ethylamino)benzamide]	420 nM	110 nM		
CC(C)c1nn(-c2ccc(C(N)=O)c(N[C@H]3CC[C@H](O)CC3)c2)c2ccnc(-c3cnc4ccccc4c3)c12 [Example 4, 2-(Trans-4-hydroxycyclohexylamino)-4-{3-isopropyl-4-(quinolin-3-yl)-1H-pyrazolo[4,3-c]pyridin-1-yl}benzamide]			1600 nM	820 nM
CC(C)c1nn(-c2ccc(C(N)=O)c(NC3CCC(O)CC3)c2)c2nccc(-n3cnc(-c4ccco4)c3)c12 (centres unmarked) [Example 88, 4-{4-(4-(Furan-2-yl)-1H-imidazol-1-yl)-3-isopropyl-1H-pyrazolo[3,4-b]pyridin-1-yl}-2-(4-hydroxycyclohexylamino)benzamide]	680 nM	230 nM		
NCC(=O)O[C@H]1CC[C@H](Nc2cc(-n3cc(C(F)(F)F)c4c(-c5cnc6ccccc6c5)ccnc43)ccc2C(N)=O)CC1 [Example 44, Trans-4-{2-carbamoyl-5-{4-(quinolin-3-yl)-3-(trifluoromethyl)-1H-pyrrolo[2,3-b]pyridin-1-yl}phenylamino}cyclohexyl-2-aminoacetate dimethanesulfonate]	130 nM			10 nM
CC(C)c1nn(-c2ccc(C(N)=O)c(NC3CCNCC3)c2)c2nccc(-c3cnc4ccccc4c3)c12 [Example 76, 4-{3-Isopropyl-4-(quinolin-3-yl)-1H-pyrazolo[3,4-b]pyridin-1-yl}-2-(piperidin-4-ylamino)-benzamide]	190 nM	40 nM		
CC(C)c1nn(-c2ccc(C(N)=O)cc2Cl)c2nccc(-n3cnc(-c4cnn(C)c4)c3)c12 [Example 99, 3-Chloro-4-{3-isopropyl-4-(4-(1-methyl-1H-pyrazol-4-yl)-1H-imidazol-1-yl)-1H-pyrazolo[3,4-b]pyridin-1-yl}benzamide]	520 nM	690 nM		
CC(C)c1nn(-c2ccc(C(N)=O)c(NCCN3CCOCC3)c2)c2nccc(-c3cnc4ccccc4c3)c12 [Example 31, 4-{3-Isopropyl-4-(quinolin-3-yl)-1H-pyrazolo[3,4-b]pyridin-1-yl}-2-(2-morpholinoethylamino)benzamide]	330 nM	100 nM		
CC(C)Nc1cc(-n2nc(C(C)C)c3c(-n4cnc(-c5cccnc5)c4)ccnc32)ccc1C(N)=O [Example 140, 4-{3-Isopropyl-4-(4-(pyridin-3-yl)-1H-imidazol-1-yl)-1H-pyrazolo[3,4-b]pyridin-1-yl}-2-(isopropylamino)benzamide]	760 nM	190 nM		
CC(C)Nc1cc(C(N)=O)ccc1-n1nc(C(F)(F)F)c2c(-n3cnc(-c4cccnc4)c3)ccnc21 [Example 181, 3-(Isopropylamino)-4-{4-(4-(pyridin-3-yl)-1H-imidazol-1-yl)-3-(trifluoromethyl)-1H-pyrazolo[3,4-b]pyridin-1-yl}benzamide]	140 nM	120 nM		
CC(C)c1nn(-c2ccc(C(N)=O)c(Nc3ccc(CN4CCCC4)cc3)c2)c2nccc(-c3cnc4ccccc4c3)c12 [Example 35, 4-{3-Isopropyl-4-(quinolin-3-yl)-1H-pyrazolo[3,4-b]pyridin-1-yl}-2-{4-(pyrrolidin-1-ylmethyl)phenylamino}benzamide]	1500 nM	280 nM		
